According to a melting point compilation (Tetko et al.; mined from patent text by program, amines drawn as free bases though some values may be those of a salt):

SMILES	melting point [°C]
CC(=O)OC1CSC(Oc2cccc(-c3cc(C)ccn3)c2)C(OC(C)=O)C1OC(C)=O (stereo unspecified)	116
NCc1ccc(CNC(=O)[C@@H](CCCNC(N)=N[N+](=O)[O-])NC(=O)C(c2ccccc2)c2ccccc2)cc1	198 to 199
CN(CC(=O)[C@H](Cc1ccccc1)NC(=O)N1CCCCC1)C(=O)N1CCC[C@H]1C(=O)O	69 to 72
CN1Cc2c(C#CC(C)(C)C)ncn2-c2ccccc2C1=O	148 to 150
O=C(OCC1CO1)c1cccc(C(=O)OCC2CO2)c1 (stereo unspecified)	60 to 65
Cn1c(CC(=O)O)ccc1C(=O)c1ccc(C#N)cc1	196 to 198
Fc1ccc(-c2ncn(C3CC3)c2-c2ccncc2)cc1	129 to 130
CC(=C1SCCS1)c1ccc(F)cc1	27 to 31
CN1CC(Cl)CC2c3cccc4[nH]cc(c34)CC21 (stereo unspecified)	195 to 197
COc1ccc(SC)c2c1CC(N)(C#N)CC2 (stereo unspecified)	128 to 130
COC(=O)c1c(-c2ccc(Cl)cc2)ccnc1Br	73 to 76
CCCCCCCCCCCCCCc1ccc2c(c1)C(=O)C(=O)N2	87 to 89
N#Cc1ccc2c(c1)CCC=C2c1cncs1	78 to 79
CSC1=Nc2ccccc2C2=NCC(CC3CNCCC34CCCCC4)N12 (stereo unspecified)	114 to 115
CC1(C)[C@@H]2CC[C@@]1(C)C[C@H]2OC(=O)C1CCC(C(=O)O[C@@H]2C[C@]3(C)CC[C@H]2C3(C)C)CC1 (stereo partly specified)	77
CCOc1ccc(-c2cc(C(F)(F)F)n3ncc(-c4cccnc4)c3n2)cc1C(F)(F)F	178
CCC1CC2C3CCc4cc(OC)ccc4C3CCC2(C)C1=O (stereo unspecified)	93 to 94
Cc1cc(NS(=O)(=O)c2ccccc2)cc(C)c1S(=O)(=O)C(Cl)(Cl)[N+](=O)[O-]	112 to 114
CCC(C(=O)OC)[C@@H](C)O (stereo partly specified)	72.4 to 73.3

SMILES	melting point [°C]
CCCCCCCCCCCCCCOCCCSCCCO	38 to 41
O=C(CN1CC(c2ccc(Cl)cc2)CC1=O)Oc1c(Cl)c(Cl)c(Cl)c(Cl)c1Cl (stereo unspecified)	135 to 136
c1cnc2nc(-c3nccs3)ccc2c1	160 to 165
CCOC(=O)NC1(c2ccccc2Cl)CCCCC1=O (stereo unspecified)	112 to 114
O=C(O)c1c2n(c3cc(N4CCOCC4)c(F)cc3c1=O)CS2	244 to 248
NC(=O)c1ccc(OCCCC(=O)O)cc1	162 to 164
CC(c1ncccn1)C(O)(Cn1cncn1)c1ccc(F)cc1F (stereo unspecified)	193 to 195
CC(C)c1cc(C#N)cc(C(=O)Nc2ccc(F)cn2)n1	194
C=CCc1c(O)ccc2oc(C(=O)OCC)cc12	94 to 95
CCOC(=O)c1cn(C)c2cc(CC)ccc2c1=O	92 to 94
CCCC1CCN(CCCCC(=O)c2cc(Cl)c(N)cc2OCc2cc(OC)cc(OC)c2)CC1	119 to 120
CC(C)CCOc1c(-c2ccc(S(N)(=O)=O)cc2)cnn(C(C)(C)C)c1=O	153 to 155
COc1nc2cc(C)c(Cl)c(NS(C)(=O)=O)c2nc1OC	198
CC(COc1ccc(C(N)=O)c(O)c1)NCC(O)COc1ccc(NS(C)(=O)=O)cc1 (stereo unspecified)	147 to 150
COc1cc(OC)cc(OC(=O)N2CCCC2=O)c1	80 to 81
O=c1n(CC2CO2)c(=O)n(CC2CO2)n1CC1CO1 (stereo unspecified)	93 to 94
COc1ccc2c(c1C)OC(C(=O)O)C2 (stereo unspecified)	142 to 143
CCOC(=O)c1cc(N=C=S)c(Cl)cc1Cl	45 to 46

The remaining lines, values ahead:

melting point [°C]	SMILES
177 to 178	CS(=O)(=O)OCCCn1cc(C2=C(c3ccccc3[N+](=O)[O-])C(=O)NC2=O)c2ccccc21
138	CCCCOc1cc(C(=O)NCCCN2CCCCC2)cc(S(N)(=O)=O)c1Cc1ccccc1
217	CCCc1c(O)n2c3c(=O)n(C)c(=O)n(C)c3nc2n(Cc2ccccc2)c1=O
248 to 249	O=C1OC(c2ccccc2)(c2ccccc2)C2CN(S(=O)(=O)/C=C/c3ccc(F)cc3)CCN12 (stereo unspecified)
144	O=C(Nc1cccc(S(=O)(=O)N2CCOCC2)c1)c1cnn2c(C(F)(F)F)cc(-c3ccc(Cl)cc3)nc12
170 to 171	CC(C)c1cccc(C(C)C)c1NC(=O)NCC1(O)CCCc2ccccc21 (stereo unspecified)
> 275	COC(=O)Nc1nc(-c2ccccc2)c(-c2nc3ccccc3c(=O)n2-c2ccccc2C)s1
218 to 219	CCc1cn(C2CC(O)C(CNC(=O)CS(=O)(=O)c3ccccc3)O2)c(=O)[nH]c1=O (stereo unspecified)
145 to 148	CCC(=O)N(CC)c1cccc(-c2ccc3nnc(C)n3n2)c1
153 to 155	FC(F)(F)c1cccc2c(-c3ccccc3)c(Oc3ccccc3)cnc12
172 to 174	CSc1c(C(=O)NN2CCCCC2)nn(-c2ccc(Cl)cc2Cl)c1-c1ccc(Cl)cc1
68 to 73	O=C[C@H](OCc1ccccc1)[C@@H](OCc1ccccc1)[C@@H](O)COCc1ccccc1
206	CCOC(=O)c1ccc(N2CCN(Cc3cc(C)c4c(c3)NC(=O)C(C)O4)CC2)nc1 (stereo unspecified)
139 to 141	CC(C)Oc1ccc(CCCOc2cc(CCC(=O)O)n(-c3ccccc3)n2)c(OCc2ccc(Cl)cc2Cl)c1
83.4	CCOC(=O)C(C)(C)Sc1ccc2c(-c3ccccc3F)noc2c1Cl
238 to 239	CNC(=O)CC1(CC(=O)O)c2ccccc2C(=O)c2ccccc21
135 to 137	c1ccc(-c2cn3ccccc3n2)cc1

melting point [°C]	SMILES
60 to 62	CCCCc1oc2ccc(C(=O)OC)cc2c1C(=O)c1ccc(CCN=[N+]=[N-])cc1
234 to 235	O=C(Nc1cccc2c(=O)cc(-c3nnn[nH]3)oc12)c1ccc2c(c1)CC(CCCc1ccccc1)O2 (stereo unspecified)
86 to 87	COc1ccc(C[C@H](NC(=O)OCc2ccccc2)[C@H]2CO2)cc1
157 to 158	N#Cc1ccc(N2CCN(CCC3CCc4ccccc43)CC2)cc1 (stereo unspecified)
234	O=c1cc(OCc2ccccc2)c2ccc(O)cc2o1
278 to 283	COc1ccc(C(=O)NC(=O)Nc2ccc3c(c2)/C(=C/c2ccc[nH]2)C(=O)N3)cc1
196	O=C(Nc1nccs1)c1c([C@@H]2CCCN2)nc2c(C(F)(F)F)cccc2c1O
155 to 156	Cc1ccc(NC(=O)c2cccc(C(F)(F)F)c2)cc1-c1ccc2ncncc2c1
100	CN(C)CCNc1cc(CNc2ccccc2C(=O)Nc2cccc(C(F)(F)F)c2)ccn1
215 to 217	CCCC(=O)c1cnc2c(OC)cccc2c1Nc1ccccc1C
125 to 127	Nc1c(C(=O)c2cccc(S(N)(=O)=O)c2)[nH]c2cc(Cl)ccc12
178 to 182	CCOC(=O)C1(C)C(=O)Nc2cc3[nH]c(-c4ccccc4)nc3cc21 (stereo unspecified)
189 to 192	O=c1[nH]c(=O)n(CCCl)c2ccccc12
189 to 193	O=c1[nH]c2ccc(Cl)cc2c2nc(-c3cccnc3)nn12
159 to 163	Cc1[nH]c(C#N)c(C)c1-c1nc2ccc(C(=O)c3ccccc3)cc2[nH]1
195 to 198	NC(=O)c1nc(-c2ccc(Cl)cc2Cl)c(-c2ccc(Cl)cc2)s1
> 300	O=c1cc(-c2cccc(OP(=O)(O)O)c2)[nH]c2ccc(N3CCCC3)cc12
